Assay results from US10543284B2, “Anti-c-Met antibody and anti-c-Met antibody-cytotoxic drug conjugate and pharmaceutical use thereof” (Suzhou Suncadia Biopharmaceuticals Co., Ltd., priority 2015, dated 2020).
Read-outs that look alike come from different tables or passages of the source. *1 amine or outer side, *2 acyl side, *3 side chain or, on linkers, in order; H or OH if unused. Where a SMILES comes first, the peptide text is derived from it. [ ]: non-standard residue; d: D form. X1 = CO[C@H]([C@@H](C)C(=O)[*:2])[C@@H]1C[C@@H]2C[C@@H]2N1[*:1]; Dolaproine = CO[C@@H]([C@@H]1CCCN1)[C@@H](C)C(=O)O; Dil = CC[C@H](C)[C@H](NC)[C@@H](CC(=O)O)OC; Phe(2-F) = N[C@@H](Cc1ccccc1F)C(=O)O; NMeV = CN[C@H](C(=O)O)C(C)C

Legend:
MKN45 cell = assay: ATP cytotoxicity test (CellTiter-Glo, 72 hours) in MKN45; type: cell-based, human
Procedure: In order to assess the toxic effects of the ADC molecules of the present invention on cells, the ATP toxicity test was performed. ATP is an indicator of the metabolism of living cells, and the detection of ATP can reflect the effect of the toxicity of molecules on cells.
HepG2 cells (Chinese Academy of Sciences cell bank, Cat # TCHu 72) were cultivated in EMEM complete medium containing 10% FBS, and MKN45 cells were cultivated in RPMI1640 complete medium containing 10% FBS. Trypsinization was performed for 2-3 min by adding 2-3 ml trypsin, 10-15 ml complete medium was added to elute the trypsinized cells when the trypsinization was complete, and the cells were centrifuged at 1000 rpm for 3 min. The supernatant was discarded, 10-20 ml complete medium was added to resuspend the cells to obtain a single cell suspension, and the cell density was adjusted to 4×10^4 cells/ml. 0.1 ml of the above cell suspension was added to each well of a 96-well cell culture plate and cultivated in an incubator at 37° C. in 5% CO2. […] The chemiluminescence was measured by a microplate reader (VICTOR 3, PerkinElmer), and the result was analyzed by GraphPad Prism (version 5.0) software.

HepG2 cell = assay: ATP cytotoxicity test (CellTiter-Glo, 72 hours) in HepG2; type: cell-based, human
Procedure: HepG2 cells (Chinese Academy of Sciences cell bank, Cat # TCHu 72) were cultivated in EMEM complete medium containing 10% FBS, and MKN45 cells were cultivated in RPMI1640 complete medium containing 10% FBS. Trypsinization was performed for 2-3 min by adding 2-3 ml trypsin, 10-15 ml complete medium was added to elute the trypsinized cells when the trypsinization was complete, and the cells were centrifuged at 1000 rpm for 3 min. The supernatant was discarded, 10-20 ml complete medium was added to resuspend the cells to obtain a single cell suspension, and the cell density was adjusted to 4×10^4 cells/ml. 0.1 ml of the above cell suspension was added to each well of a 96-well cell culture plate and cultivated in an incubator at 37° C. in 5% CO2. […] Detection was performed according to the instructions of CellTiter-Glo® Luminescent Cell Viability Assay kit (Promega, Cat # G7571). The chemiluminescence was measured by a microplate reader (VICTOR 3, PerkinElmer), and the result was analyzed by GraphPad Prism (version 5.0) software.

[1] = test system: a variety of human tumor cell lines; details: cited from earlier work
human c-Met-His = target: T1, human c-Met-His (Homo sapiens, UniProt P08581); assay: ELISA binding of c-Met antibody to c-Met antigen; details: hybridoma fusion clones, ELISA read at 450 nm
T1 construct: His (C); made in house; host or cells: 293F cells
T1 sequence (P08581 25-932 limits assumed): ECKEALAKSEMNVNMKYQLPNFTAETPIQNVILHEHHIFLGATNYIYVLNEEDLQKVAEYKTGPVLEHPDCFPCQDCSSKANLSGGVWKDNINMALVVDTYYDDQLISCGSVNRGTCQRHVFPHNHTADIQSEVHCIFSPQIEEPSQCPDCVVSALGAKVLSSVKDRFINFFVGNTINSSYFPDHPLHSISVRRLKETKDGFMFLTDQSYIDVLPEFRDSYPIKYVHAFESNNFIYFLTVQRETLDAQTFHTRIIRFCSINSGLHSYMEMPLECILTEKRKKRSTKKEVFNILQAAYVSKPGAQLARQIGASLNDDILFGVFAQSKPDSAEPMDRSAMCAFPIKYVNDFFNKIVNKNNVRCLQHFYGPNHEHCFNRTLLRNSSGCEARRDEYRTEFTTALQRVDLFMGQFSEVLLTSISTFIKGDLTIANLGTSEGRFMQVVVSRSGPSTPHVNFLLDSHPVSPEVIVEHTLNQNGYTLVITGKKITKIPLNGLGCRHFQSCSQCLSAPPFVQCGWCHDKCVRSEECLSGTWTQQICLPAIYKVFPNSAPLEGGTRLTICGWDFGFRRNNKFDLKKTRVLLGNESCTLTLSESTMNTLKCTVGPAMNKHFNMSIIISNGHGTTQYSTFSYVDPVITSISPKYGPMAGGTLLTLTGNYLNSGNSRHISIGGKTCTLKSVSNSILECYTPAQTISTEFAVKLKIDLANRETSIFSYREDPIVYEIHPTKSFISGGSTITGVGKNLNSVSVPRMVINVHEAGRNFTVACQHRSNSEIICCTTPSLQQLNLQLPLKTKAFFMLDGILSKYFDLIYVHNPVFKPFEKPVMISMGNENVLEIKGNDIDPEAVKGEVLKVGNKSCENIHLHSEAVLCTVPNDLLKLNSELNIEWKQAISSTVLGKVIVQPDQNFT
Procedure: This experiment uses enzyme linked immunosorbent assay (ELISA) to detect affinity of c-Met antibody to c-Met antigen in vitro (including supernatant of hybridoma or recombinantly expressed monoclonal antibodies).
Experimental procedures: Coating buffer (PBS; Hyclone, Cat No.: SH30256.01B) was used to dilute antigen (human c-Met-His, example 1) to 2 μg/ml, which was added to 96-well plate with 100 μl/well (Costar 9018, Cat No.: 03113024) and incubated overnight at 4′C. […] The plate was read with plate reader at 450 nm.
After immunization, mice with a serum titer higher than 1:10^5 were selected for fusion. Mouse B-cells and myeloma cells (SP2/0, ATCC number: CRL-1581™) were prepared respectively in aseptic conditions and counted. […] The next day, positive clones were detected by ELISA (see Methods in Example 2).

MKN45 cells = assay: Inhibition of proliferation of MKN45 gastric cancer cells (CellTiter-Glo, 5 days); type: cell-based, human; details: monoclone culture supernatant, 5 days
Excerpt: The clones above were selected and further cultured to obtain monoclones. After verification of binding activity by ELISA, monoclones were selected for cultivation, and the resulting supernatant was subjected to a cell viability assay. According to the experiment principle, anti-human c-Met antibodies of the invention are able to inhibit phosphorylation of c-Met expressed on the surface of human gastric cancer cell line MKN45, thereby inhibiting the proliferation of MNK45 cells.
Human gastric cancer cells (MKN45, JCRB, JCRB0254, P11) were added to a 96-well cell culture plate (costar, #3799) at 1×10^5 cells/mL and 50 μl/well. The medium was RPMI1640 medium: (GIBCO, cat #11835)+10% FBS (GIBCO-10099141). Anti-human c-Met antibodies to be tested were added at 50 μl/well, and the plate was cultured for 5 days in incubator at 37′C (Manufacture: SANYO; Equipment No. TINC035). CellTiter-Glo® Luminescent Cell Viability Assay (Promega, G7573) was used, and the proliferation of cells was detected according to the instructions. The plate was read by a PerkinElmer plate reader, TREA001-RDA-IBA100. The following formula was used to calculate the percentage proliferation of cells: % proliferation of cells=(1−cell reads in experimental group/cell reads in untreated group)×100%.

Q: With `CC[C@H](C)[C@@H]([C@@H](CC(=O)N1CCC[C@H]1[C@H](OC)[C@@H](C)C(=O)N[C@@H](Cc1ccccc1)C(=O)O)OC)N(C)C(=O)[C@@H](NC(=O)[C@@H](NC)C(C)C)C(C)C` [MMAF, reference compound] (H-[NMeV]V[Dil][Dolaproine]F-OH) as the molecule, how does the IC50 (MKN45 cell) read?
A: Its IC50 is 0.85 nM.

Q: And the IC50 (HepG2 cell; ND: No activity was detected)?
A: The IC50 was 4.88 nM.

Q: Which results are given for `CC[C@H](C)[C@@H]([C@@H](CC(=O)N1[C@H]2C[C@H]2C[C@H]1[C@H](OC)[C@@H](C)C(=O)N[C@@H](Cc1ccccc1F)C(=O)O)OC)N(C)C(=O)[C@@H](NC(=O)[C@@H](NC)C(C)C)C(C)C` [12 g, (S)-2-((2R,3R)-3-((1S,3S,5S)-2-((3R,4S,5S)-4-((S)—N,3-dimethyl-2-((S)-3-methyl-2-(methylamino)butyramide)butyramide)-3-methoxy-5-methylheptanoyl)-2-azabicyclo[3.1.0]hexane-3-yl)-3-methoxy-2-methylpropanamido)-3-(2-fluorophenyl)propionic acid] (H-[NMeV]V[Dil][X1][Phe(2-F)]-OH)?
A: IC50 (MKN45 cell; Homo sapiens, MKN-45): 79.4 nM; IC50 (HepG2 cell; Homo sapiens, HepG2, ND: No activity was detected): 401 nM

Q: Which “inhibitory activities against a variety of human tumor cell lines” value [1] does the source give for `CC[C@H](C)C([C@@H](CC(=O)N1CCC[C@H]1[C@H](OC)[C@@H](C)C(=O)N[C@H](C)[C@@H](O)c1ccccc1)OC)N(C)C(=O)[C@@H](NC(=O)[C@@H](NC)C(C)C)C(C)C` (stereo partly shown) [MMAE, Monomethyl aurantatin E] here?
A: The value was “less than one nanomolar”.

B1: Ab-5: mouse hybridoma cell monoclonal antibody; heavy chain variable region SEQ ID NO: 4, light chain variable region SEQ ID NO: 5 (antibody, V domains shown)
VH: QVQLKQSGPGLVQPSQSLSITCTVSGFSLPNYGVHWVRQSPGKGLEWLGVIWSGGSTNYAAAFVSRLRISKDNSKSQVFFEMNSLQADDTAVYYCARNHDNPYNYAMDYWGQGTTVTVSS
VL: DIVLTQSPGSLAVYLGQRATISCRANKSVSTSTYNYLHWYQQKPGQPPKLLIYLASNLASGVPARFSGSGSGTDFTLNIHPLEEEDAATYYCQHSRDLPPTFGAGTKLELKR
modifications: Murine
Q: Which “Detection Results (OD450)” value (human c-Met-His) does the source give for B1 here?
A: Its value is 1.64.

Q: And the “MKN45 inhibition percentage (%)” value (MKN45 cells)?
A: The value was 77.4%.
